In publication PMC4186431 (Pharmacology Research & Perspectives, 2013):
Like-named read-outs stand apart in the source and are kept apart here.

What was measured:
human 5-HT7(a) receptor [1] = biological target: T1, human 5-HT7(a) receptor (Homo sapiens, UniProt P34969); test: Whole-cell [^3H]-SB-269970 radioligand binding (in the presence of the compounds)
Protocol: (§1) The data were analyzed using GraphPad Prism software v4.0 (GraphPad Software Inc., San Diego, CA). Receptor density (Bmax) and the dissociation constant (Kd) of the radioligand were determined by nonlinear regression curve fitting of saturation binding curves to a one-site binding (hyperbola) model. […] The IC50 values were determined by nonlinear regression curve fitting to sigmoidal dose–response or sigmoidal dose–response (variable slope) models, as indicated. […] Results are expressed as the mean values ± SEM from the number of independent experiments indicated. Prediction of log of octanol/water partition coefficient (xlog P) values were retrieved from ZINC database (http://zinc.docking.org/) (Irwin et al. [2012]).

human 5-HT7(a) receptor [2] = biological target: T1, human 5-HT7(a) receptor; test: Whole-cell [^3H]-SB-269970 radioligand binding (preincubation/washout experiments); details: for inhibition at 10 µM: read-out: Inhibition of specific binding of [^3H]-SB-269970 after preincubation and washout, 10 μmol/L, 30 min at 37°C, time t = 0 after washout
Protocol: After incubation for 30 min at 37°C, the assay was stopped, as previously described.
as §1

5-HT7 receptors = test system: 5-HT7 receptors; design: method as in Lacivita et al. [2012]; details: ref Lacivita et al. [2012]; cited from earlier work
human 5-HT7(a) receptor [3] = biological target: T1, human 5-HT7(a) receptor; test: Membrane homogenate [^3H]-SB-269970 radioligand binding; details: for Hill slope nH (membrane homogenate radioligand binding): [^3H]-SB-269970 competition, best fit model (nH = 1 or variable slope)
Protocol: Cell membrane homogenate was prepared as previously described (Varin et al. [2010]). […] After incubation, the reactions were stopped by filtration in a harvester apparatus through GF/B filters pretreated with 0.25% (w/v) poly(ethyleneimine) solution. Filters were counted in a LS-6000LL beta counter (Beckman Coulter, Inc., Fullerton, CA, USA).
as §1

human 5-HT7 receptors [4] = biological target: T2, human 5-HT7 receptors (Homo sapiens, UniProt P34969); details: estimated from experiments with behavior not compatible with classical competitive binding; ref Leopoldo et al. [2008]; cited from earlier work
T2 sequence (P34969 1-445 isoform P34969-2): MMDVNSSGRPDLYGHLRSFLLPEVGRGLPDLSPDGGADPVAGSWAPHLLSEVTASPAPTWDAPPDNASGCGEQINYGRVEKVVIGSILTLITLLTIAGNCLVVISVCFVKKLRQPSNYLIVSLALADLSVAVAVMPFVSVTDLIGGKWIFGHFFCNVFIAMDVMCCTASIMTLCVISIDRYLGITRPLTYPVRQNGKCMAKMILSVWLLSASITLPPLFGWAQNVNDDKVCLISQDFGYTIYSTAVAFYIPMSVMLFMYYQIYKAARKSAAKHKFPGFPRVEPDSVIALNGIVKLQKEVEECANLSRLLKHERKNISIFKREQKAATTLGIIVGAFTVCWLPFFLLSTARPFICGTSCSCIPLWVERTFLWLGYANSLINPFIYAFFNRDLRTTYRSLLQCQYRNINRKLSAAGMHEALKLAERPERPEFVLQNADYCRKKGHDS

human 5-HT7(a) receptor [5] = biological target: T1, human 5-HT7(a) receptor; test: 5-CT-stimulated cAMP assay in the presence of the compounds (antagonist curves, Schild analysis), HEK-hu5-HT7 cells; assay type: cell-based
Protocol: (§2) cAMP levels were quantified using the homogeneous time-resolved fluorescence (HTRF)-based cAMP dynamic kit (Cisbio, Bioassays, Codolet, France). […] In all cases, basal cAMP levels were determined in control wells in the absence of agonist. The effects of the compounds on forskolin-stimulated adenylate cyclase activity were evaluated either at a single concentration (parental HEK293 cells) or by using concentration–response curves (HEK-hu5-HT7 cells). Cells were incubated in the absence (control) or presence of the compounds, at the concentrations indicated, in assay buffer for 15 min at 37°C prior to the addition of forskolin and further incubation for 15 min. Basal cAMP levels were determined in control wells in the absence of forskolin.
as §1, with “indicated.” for “indicated. Prediction of log of octanol/water partition coefficient (xlog P) values were retrieved from ZINC database (http://zinc.docking.org/) (Irwin et al. [2012]).”

human 5-HT7(a) receptor [6] = biological target: T1, human 5-HT7(a) receptor; test: 5-CT-stimulated cAMP assay, preincubation/washout experiments, HEK-hu5-HT7 cells; assay type: cell-based; details: read-out: IC50, irrev, 5-CT-stimulated cAMP production
Protocol: (§3) After proceeding with the subsequent assay steps according to the manufacturer's protocol, fluorescence was measured as previously described.
as §1, with “indicated.” for “indicated. Prediction of log of octanol/water partition coefficient (xlog P) values were retrieved from ZINC database (http://zinc.docking.org/) (Irwin et al. [2012]).”

human 5-HT7(a) receptor [7] = biological target: T1, human 5-HT7(a) receptor; test: cAMP assay, agonist effects in HEK-hu5-HT7 cells; assay type: cell-based; details: 100 pmol/L to 10 μmol/L, data not shown
Protocol: as §2, with “forskolin. After proceeding with the subsequent assay steps according to the manufacturer's protocol, the fluorescence emission intensity ratio at 665/620 nm wavelength was measured in an Ultra Evolution 384 microplate reader (TECAN, Männedorf, Switzerland).” for “forskolin.”

[8] = test system: forskolin-stimulated adenylate cyclase activity in HEK-hu5-HT7 cells; test: Forskolin-stimulated cAMP production in the presence of the compounds, HEK-hu5-HT7 cells; assay type: cell-based; details: Homo sapiens; 10 μmol/L forskolin, continuous presence of the compounds; read-out: IC50, inhibition of forskolin-stimulated adenylate cyclase activity
Protocol: as §2, with “forskolin. After proceeding with the subsequent assay steps according to the manufacturer's protocol, the fluorescence emission intensity ratio at 665/620 nm wavelength was measured in an Ultra Evolution 384 microplate reader (TECAN, Männedorf, Switzerland).” for “forskolin.”
The data were analyzed using GraphPad Prism software v4.0 (GraphPad Software Inc., San Diego, CA). Receptor density (Bmax) and the dissociation constant (Kd) of the radioligand were determined by nonlinear regression curve fitting of saturation binding curves to a one-site binding (hyperbola) model. […] Results are expressed as the mean values ± SEM from the number of independent experiments indicated. […]

[9] = test system: forskolin-stimulated adenylate cyclase activity in parental HEK293 cells; test: Forskolin-stimulated cAMP production in parental HEK293 cells; assay type: cell-based, human; details: 1 μmol/L or 10 μmol/L compound, parental HEK293 cells (Fig. 7 inset)
Protocol: as §2, with “forskolin. After proceeding with the subsequent assay steps according to the manufacturer's protocol, the fluorescence emission intensity ratio at 665/620 nm wavelength was measured in an Ultra Evolution 384 microplate reader (TECAN, Männedorf, Switzerland).” for “forskolin.”

5-HT1A [10] = details: ref Leopoldo et al. [2008], cited from earlier work
D2 = biological target: D2; design: method as in Leopoldo et al. [2008]; details: ref Leopoldo et al. [2008]; cited from earlier work
human 5-HT7 receptors [11] = biological target: T2, human 5-HT7 receptors; test: [^3H]-LSD binding in membrane homogenates of HEK-hu5-HT7 cells
5-HT1A [12] = test: Literature affinity for 5-HT1A receptors; assay type: binding; details: reported 5-HT1A affinity versus 5-HT7 affinity of this study; ref Leopoldo et al. [2008]
[13] = test system: forskolin-stimulated adenylate cyclase activity in HEK-hu5-HT7 cells; test: Forskolin-stimulated cAMP production, preincubation/washout experiments, HEK-hu5-HT7 cells; assay type: cell-based; details: Homo sapiens; 30 min preincubation, washout, then 10 μmol/L forskolin 15 min, n = 3; read-out: IC50, irrev, forskolin-stimulated adenylate cyclase activity
Protocol: as §3
The data were analyzed using GraphPad Prism software v4.0 (GraphPad Software Inc., San Diego, CA). Receptor density (Bmax) and the dissociation constant (Kd) of the radioligand were determined by nonlinear regression curve fitting of saturation binding curves to a one-site binding (hyperbola) model. […] The IC50 values were determined by nonlinear regression curve fitting to sigmoidal dose–response or sigmoidal dose–response (variable slope) models, as indicated. […] Results are expressed as the mean values ± SEM from the number of independent experiments indicated.

[14] = test system: isolated guinea pig ileum; design: method as in Leopoldo et al. [2008]; details: ex vivo; ref Leopoldo et al. [2008]; cited from earlier work
[15] = test system: rat trigeminal nucleus caudalis; design: method as in Martínez-García et al. [2011]; details: ref Martínez-García et al. [2011]; cited from earlier work
[16] = test system: wild type and 5-HT7 knock-out mice; design: method as in Hedlund et al. [2010]; details: ref Hedlund et al. [2010]; cited from earlier work
[17] = design: method as in Hedlund et al. [2010]; details: mice; ref Hedlund et al. [2010]; cited from earlier work
mice = test system: mice; design: method as in Adriani et al. [2012]; details: ref Adriani et al. [2012]; cited from earlier work
mouse hippocampal slices = test system: mouse hippocampal slices; design: method as in Costa et al. [2012]; details: ref Costa et al. [2012]; cited from earlier work
rat 5-HT7 receptors = biological target: rat 5-HT7 receptors; design: method as in Leopoldo et al. [2008]; Hedlund et al. [2010]; details: cloned in cell lines; ref Leopoldo et al. [2008]; Hedlund et al. [2010]; cited from earlier work

T1 sequence (P34969 1-445 isoform P34969-2): as above

c1ccc(-c2ccccc2N2CCNCC2)cc1 [RA-7, 1-(2-biphenyl)piperazine]
remaining activity at 10 µM (human 5-HT7(a) receptor [1]; read-out: [^3H]-SB-269970 specific binding (percent of control), competitive whole-cell binding, 10 μmol/L, n = 3): 0.64 ± 0.44%
Inhibition of specific binding of [^3H]-SB-269970 after preincubation and washout (human 5-HT7(a) receptor [2]; 10 μmol/L, 30 min at 37°C, time t = 0 after washout): ~50%
Duration of inhibition of [^3H]-SB-269970 binding after compound removal (human 5-HT7(a) receptor [2]; preincubation with 10 μmol/L, recovery followed at 0, 1, 3, 6 and 24 h): at least 24 h
inhibition at 10 µM (human 5-HT7(a) receptor [2]): 54.8 ± 5.15%
Action at 5-HT7 receptors in HeLa cells (5-HT7 receptors): high-affinity receptor 5-HT7 antagonist

O=C(CCCCCN1CCN(c2ccccc2-c2ccccc2)CC1)NCc1ccccc1 [MEL-9, N-benzyl-4-(2-diphenyl)-1-piperazinehexanamide]
5-HT7 affinity (membrane homogenate radioligand binding) pKi (human 5-HT7(a) receptor [3]; 2 nmol/L [^3H]-SB-269970, HEK-hu5-HT7 membrane homogenate): 7.78
Ki (human 5-HT7(a) receptor [3]; 2 nmol/L [^3H]-SB-269970, HEK-hu5-HT7 membrane homogenate, 60 min 37°C, read-out: 5-HT7 affinity (membrane homogenate radioligand binding) Ki): 0.0166 ± 0.00099 µM
Hill slope nH (membrane homogenate radioligand binding) (human 5-HT7(a) receptor [3]): 1.34 ± 0.14
Ki (human 5-HT7(a) receptor [1]; read-out: 5-HT7 affinity (whole-cell radioligand binding) Ki): 0.0138 ± 0.00024 µM
Ki (human 5-HT7 receptors [4]): 0.0008 µM
IC50 (human 5-HT7(a) receptor [5]): 0.0278 ± 0.00672 µM
IC50 (human 5-HT7(a) receptor [6]): 0.0418 ± 0.018 µM
Agonist effect on cAMP levels (human 5-HT7(a) receptor [7]): did not elicit any detectable increase in cAMP levels
IC50 [8]: 0.0193 ± 0.00818 µM
IC50 (human 5-HT7(a) receptor [2]; 30 min preincubation, washout, then 2 nmol/L radioligand): 0.0224 ± 0.00763 µM
inhibition at 10 µM (human 5-HT7(a) receptor [2]): 97.2 ± 0.23%
Effect on forskolin-stimulated cAMP production in the parental cell line [9]: no effect
Ki (5-HT1A [10]): 0.503 µM
Ki (D2): 0.161 µM
nH, displacement of [^3H]-LSD binding (human 5-HT7 receptors [11]; data not shown): 1.11 ± 0.19
Ki (human 5-HT7 receptors [11]; n = 3, data not shown, read-out: Ki, displacement of [^3H]-LSD binding): 0.0379 ± 0.0113 µM
Fold lower affinity for 5-HT1A receptors than for 5-HT7 receptors (5-HT1A [12]): 9.7 fold
IC50 [13]: 0.0112 ± 0.00325 µM

N#Cc1ccc(CNC(=O)CCCCCN2CCN(c3ccccc3-c3ccccc3)CC2)cc1 [LP-211, N-(4-cyanophenylmethyl)-4-(2-diphenyl)-1-piperazinehexanamide]
Hill slope nH (membrane homogenate radioligand binding) (human 5-HT7(a) receptor [3]): 1
Effect on substance P-induced contraction in isolated guinea pig ileum [14]: elicited relaxation of substance P-induced contraction
Effect on capsaicin-induced increase in Fos-like immunoreactivity [15]: able to modulate the capsaicin-induced increase
Effect on body temperature in wild type and 5-HT7 knock-out mice [16]: induced hypothermia in wild type but not in 5-HT7 knock-out mice
Agonist effect on cAMP levels (human 5-HT7(a) receptor [7]): did not elicit any detectable increase in cAMP levels
Metabolism in disposition studies [17]: undergoes N-dealkylation to RA-7
Behavioural effect in mice (anxiety) (mice): antianxiety-like effects
IC50 [8]: 0.06071 ± 0.00048 µM
inhibition at 10 µM (human 5-HT7(a) receptor [2]): 95.03 ± 0.47%
Effect on forskolin-stimulated cAMP production in the parental cell line [9]: no effect
Ki (5-HT1A [10]; Hedlund et al. [2010]): 0.188 to 0.379 µM
Effect on long-term synaptic depression induced by metabotropic glutamate receptors (mouse hippocampal slices): reverted long-term synaptic depression
Ki (D2): 0.142 µM
Ki (rat 5-HT7 receptors): 0.00058 µM
IC50 [13]: 0.0139 ± 0.00393 µM
